One series is described as follows: Aqueous solubility. Conditions: 2 requires a polar aprotic cosolvent like DMSO for administration. In kind it is physicochemical.
Series [1] is described as follows: Plasma pharmacokinetics after a single IV tail vein injection. The series is classed as in vivo, BALB/C mice. The note with it: for concentration at 24 h: 24 h after single IV, read-out: average plasma concentration 24 h postinjection; for half-life / Cmax / AUC(0-inf) / clearance: iv. As to the method:
(§1) Pyrrole–imidazole polyamide pharmacokinetic studies were performed in 10- to 12-week-old female BALB/C mice (Charles River). Polyamides were solubilized in PBS (1) or PBS/DMSO (2) and administered via intravenous (IV) tail vein injection at concentrations of 7.5 and 5 mg/kg, respectively. For each experiment, groups of 3 animals were euthanized at 0.083, 0.25, 0.5, 1, 2, 4, 8, and 24 h after injection. Animals designated for the 4, 8, and 24 h time points were housed in metabolic cages for collection of urine and feces as described below. All animals used in the pharmacokinetic experiments were performed under an approved protocol at the City of Hope.
Concentrations of polyamides 1 and 2 were analyzed by LC/MS/MS using a Waters Acquity UPLC system (Milford, MA, USA) interfaced with a Waters Quattro Premier XE Mass Spectrometer. HPLC separation was achieved using a Jupiter 4u Proteo 90A 150 × 2.0 mm column (Phenomenex, Torrance, CA, USA) proceeded by a Phenomenex C8 guard column (Torrance, CA, USA). The column temperature was maintained at 30 °C. The mobile phase consisted of A (0.05 % acetic acid in water) and B (0.05 % acetic acid in acetonitrile). The following gradient program was used: 8 % B (0–1 min, 0.3 ml/min), 16 % B (3 min, 0.3 ml/min), 58 % B (6 min, 0.3 ml/min), 90 % B (7 min, 0.3 ml/min), and 8 % B (7.3 min, 0.3 ml/min). The total run time was 11.5 min. The auto-injector temperature was maintained at 5 °C. The strong needle wash solution was 5 % formic acid in MeOH/ACN (2:8) for both compounds, and the weak needle wash solution was 30 % MeOH in water for compound 1 and 50 % ACN in water for compound 2. The electrospray ionization source of the mass spectrometer was operated in positive ion mode with a cone gas flow of 50 L/hr and a desolvation gas flow of 700 L/hr. The capillary voltage was set to 3.2 kV, and the cone and collision cell voltages were optimized to 32 and 27 V for 1 and the INS 3. Voltages were optimized to 31 and 20 V for 2 and the INS 4. The source temperature was 125 °C, and the desolvation temperature was 470 °C. A solvent delay program was used from 0 to 4.0 min and from 6.1 to 11.5 min to minimize the mobile phase to flow to the source. MassLynx version 4.1 software was used for data acquisition and processing.
Plasma and urine samples were prepared for LC/MS/MS analysis by mixing 30 μL of plasma with 20 μL of 50 % MeOH and 50 % aqueous 1 % HOAc. The mixture was vortexed and mixed with an additional 120 μL of 0.5 % HOAc in MeOH/ACN (4:6) and 20 μL of 6.0 μg/mL INS in MeOH/1 % aqueous HOAc (1:1). The mixture was vortexed again for 2 min and centrifuged at the highest setting for 4 min. Next, 20 μL of the supernatant was transferred to a new tube and mixed with 180 μL of 50 % MeOH/ACN (4:6) and 50 % aqueous 1 % HOAc.
Standard curves were prepared mixing untreated plasma with 20 μL of 50 % MeOH and 50 % aqueous 1 % HOAc prepared with various concentrations of 1 and 2. Internal standards were added as described above.
Plasma pharmacokinetic parameters were derived from polyamide concentration profiles using both non-compartmental and compartmental methods. Non-compartmental analysis was performed according to statistical moment theory and the rule of linear trapezoids, while compartmental analysis was performed in ADAPT II [24]. Pharmacokinetic parameters estimated from the non-compartmental analysis include the maximum concentration (C max), the terminal elimination half-life (t 1/2), the mean residence time (MRT), the area under the concentration curve (AUC0–24h), the AUC extrapolated to infinity (AUC0–∞), and the clearance (CL). Additional plasma pharmacokinetic parameters determined from the compartmental analysis include the alpha and beta half-lives (t 1/2) and the apparent volume of distribution (V d). Tissue pharmacokinetic parameters were determined non-compartmentally and included the C max and AUC0–24h. […]

Details of series [2]: method as in PMID 19413319. Conditions: previous ADMET study; cited from earlier work.
The nature of series [3]: Urinary and fecal excretion after a single IV injection. The series is classed as in vivo, BALB/C mice. As to the method:
as §1
Urine and fecal samples were collected using metabolic cages (Ancare, Techniplast Metabolic Rack, 12 cages by Nalgene). Urine samples were collected at 3 time points over 24 h, and fecal samples were collected at 8 and 24 h time points. […]
Plasma pharmacokinetic parameters were derived from polyamide concentration profiles using both non-compartmental and compartmental methods. […] Additional plasma pharmacokinetic parameters determined from the compartmental analysis include the alpha and beta half-lives (t 1/2) and the apparent volume of distribution (V d). […] Urinary and fecal excretion data were expressed as the cumulative percentage of the administered dose.

The test system of series [4] is 5′-WGWWCW-3′ sequence (androgen response element DNA). Further details: method as in PMID 18459783, PMID 22080545, PMID 17566103. The note with it: cited from earlier work.
[5] abbreviates: female, BALB/C, mouse, plasma, 7.5 mg/kg (1), 5 mg/kg (2).
The mark [6] stands for this setting: plasma, compartmental analysis, single IV, 7.5 mg/kg (1), 5 mg/kg (2).
Where [7] appears, read: plasma, non-compartmental analysis, single IV, 7.5 mg/kg (1), 5 mg/kg (2).
The mark [8] stands for this setting: female, BALB/C, mouse, plasma, compartmental analysis, single IV, 7.5 mg/kg (1), 5 mg/kg (2).
[9] abbreviates: female, BALB/C, mouse, plasma, non-compartmental analysis, single IV, 7.5 mg/kg (1), 5 mg/kg (2).

Entries after “also recorded” stand apart in the source; their conditions may differ. Where two headings read alike, the source gives them in different places.

As for `CC(=O)N[C@@H](CNC(=O)c1cc(NC(=O)c2cc(NC(=O)c3cc(NC(=O)c4nccn4C)cn3C)cn2C)cn1C)CC(=O)Nc1cn(C)c(C(=O)Nc2cc(C(=O)Nc3cc(C(=O)Nc4cc(C(=O)NCCCN(C)CCCNC(=O)c5cccc(C(=O)O)c5)n(C)c4)n(C)c3)n(C)c2)n1` [Polyamide 2], the “solubility in aqueous solutions” value in “Aqueous solubility” is given as “less soluble than 1; also recorded: relatively poor aqueous solubility”. Besides, the concentration at 24 h in series [1] (setting [5]) came out at 490 ± 200 ng/mL. In series [1] (plasma, compartmental analysis (2-compartment model), single IV, 7.5 mg/kg (1), 5 mg/kg (2)), this compound gave a C max of 40200 ng/mL. Further, in series [1] (setting [6]), the “AUC0–∞” value was 144800 ng·h/mL, the CL turned out to be 0.7 mL/h, the Vd is on record as 4 mL and the “t 1/2 α (initial)” value was 6 min. In series [1] (setting [6]), the “t 1/2 β (terminal)” value was 4.2 h. For the same compound, in series [1] (setting [7]), the “AUC0–t” value was found to be 173500 ng·h/mL, the “AUC0–∞” value stood at 176500 ng·h/mL, the CL is 0.6 mL/h and the “Elimination t 1/2” value was found to be 4.3 h. Moreover, the MRT in series [1] (setting [7]) amounted to 4.9 h. The C max in series [1] (plasma, non-compartmental analysis, single IV, 7.5 mg/kg (1), 5 mg/kg (2), mean ± S.D., n = 3) was determined as 41300 ± 5900 ng/mL. In addition, in series [2], the liver microsomal degradation entry is on record as “resistant to liver microsomal degradation”. Besides, the “cumulative urinary excretion at 24 h” value in series [3] (24 h, single IV 5 mg/kg) is 46.0 ± 15.2 % of the administered dose. The “DNA-binding ability relative to polyamide 1” value in series [4] is “without significant changes to its DNA-binding ability”.

Take `CN(CCCNC(=O)c1cccc(C(=O)O)c1)CCCNC(=O)c1cc(NC(=O)c2cc(NC(=O)c3cc(NC(=O)c4nc(NC(=O)[C@H](N)CCNC(=O)c5cc(NC(=O)c6cc(NC(=O)c7cc(NC(=O)c8nccn8C)cn7C)cn6C)cn5C)cn4C)cn3C)cn2C)cn1C` [Polyamide 1]: the half-life in series [1] (female, BALB/C, mouse, plasma, plasma, compartmental analysis, single IV, 7.5 mg/kg (1), 5 mg/kg (2), read-out: t 1/2 α (initial) (converted)) is 0.5 h; in series [1] (female, BALB/C, mouse, plasma, plasma, compartmental analysis, single IV, 7.5 mg/kg (1), 5 mg/kg (2), read-out: t 1/2 β (terminal) (converted)), 4.6 h; in series [1] (female, BALB/C, mouse, plasma, plasma, non-compartmental analysis, single IV, 7.5 mg/kg (1), 5 mg/kg (2), read-out: Elimination t 1/2 (converted)) it was 5.2 h. Moreover, the Cmax in series [1] (female, BALB/C, mouse, plasma, compartmental analysis (2-compartment model), single IV, 7.5 mg/kg (1), 5 mg/kg (2)) was 43600 ng/mL; in series [1] (female, BALB/C, mouse, plasma, non-compartmental analysis, single IV, 7.5 mg/kg (1), 5 mg/kg (2), mean ± S.D., n = 3), 49400 ± 11200 ng/mL. Also, the AUC(0-inf) in series [1] (setting [8]) was 67500 ng·h/mL; in series [1] (setting [9]), 77400 ng·h/mL. For the same compound, the clearance in series [1] (setting [8]) was 0.035 mL/min; in series [1] (setting [9]), 0.03 mL/min. The concentration at 24 h in series [1] (setting [5]) came to 210 ± 100 ng/mL. For the same compound, in series [1] (female, BALB/C, mouse, plasma, compartmental analysis, single IV, 7.5 mg/kg (1), 5 mg/kg (2), read-out: V d), the Vd worked out at 8.1 mL. For the same compound, the AUC(0-t) in series [1] (setting [9]) was found to be 75800 ng·h/mL. In series [1] (female, BALB/C, mouse, plasma, non-compartmental analysis, single IV, 7.5 mg/kg (1), 5 mg/kg (2), read-out: MRT), the MRT came out at 3.3 h. Besides, the “maximum plasma concentration relative to effective concentration for PSA mRNA downregulation in cell culture” value in series [1] (plasma C max vs cell culture effective concentration) is reported as “over 3 times”. Moreover, the cumulative urinary excretion in series [3] (nearly complete by 4 h, single IV 7.5 mg/kg) is 5.7 ± 2.9 % of the administered dose.

The term MRT denotes the average time that molecules of a dose stay in the body. The Cmax is the highest concentration seen after dosing. By AUC(0-inf) is commonly meant the area under the concentration-time curve extrapolated to infinity. A high value points to more exposure. By clearance is commonly meant the rate of elimination divided by the concentration. The low end stands for a low capacity for elimination, the high end for a high capacity for elimination. In general, AUC(0-t) refers to exposure summed from dosing to a finite time, without extrapolation to infinity. Low values mean less exposure, high ones more exposure.

These data come from publication PMC3456924, “Single-dose pharmacokinetic and toxicity analysis of pyrrole–imidazole polyamides in mice” (Cancer Chemotherapy and Pharmacology, 2012).
